Measured values reported in patent publication US20260258054A1, “SMALL MOLECULE FOR TREATMENT OF CANCER OF THE APPENDIX” (The Regents of the University of California, priority 2022, published 2026).
“Also recorded” adds a separate entry of the source.

Key:
[1] = system: GNAS KO isogenic paired cell line of SNU-175; assay: cAMP-Glo assay, GNAS KO SNU-175 cells; type: cell-based, human; conditions: mM doses (1-5 mM), 20 hours
Experimental: (§1) A study was conducted to examine the effect of compound GE3 as a Gαs Inhibitor. Cells were treated with compound GE3 at high (1-5 mM) and low (0-0.5 mM) doses for 20 hours. cAMP levels were measured using the CAMP-Glo™ Assay (Promega). An isogenic paired cell line was created by using CRISPR-Cas9 to knockout (KO) GNAS from the SNU-175 cell line; this model system has been previously described (Oncogene. 2022 August; 41(35):4159-4168).
(§2) The same experimental system was used as above to test lower doses of GE3.

[2] = system: SNU-175 cells (GNAS^R201C); assay: Incucyte viability (confluence), SNU-175 cells; type: cell-based, human
Experimental: (§3) Viability was measured over time but determining cell confluence in experimental well using Incucyte Live-Cell Analysis system (Sartorius). JVS-324 was added in increasing concentrations and cell growth monitored for 72 hours. Confluency evaluation was normalized time point zero. An isogenic paired cell line was created by using CRISPR-Cas9 to knockout (KO) GNAS from the SNU-175 cell line; this model system has been previously described (Oncogene. 2022 August; 41 (35):4159-4168).
(§4) Viability was measured over time but determining cell confluence in experimental well using Incucyte Live-Cell Analysis system (Sartorius); two experiments performed. […] (FIG. 26).

GNAS KO SNU-175 = assay: Incucyte viability (confluence), GNAS KO SNU-175 cells; type: cell-based, human
Experimental: as §3, §4

[3] = system: SNU-175 (GNAS^R201C CRC cell line); assay: cAMP-Glo assay, SNU-175 cells; type: cell-based, human
Experimental: as §1, §2

[4] = system: KM12 GNAS^R201H organoids; assay: 3D organoid growth, KM12 GNAS^R201H organoids; type: cell-based, human; conditions: H-89 60 μM, 10 days, vs. DMSO control, p=0.004
Experimental: (§5) FIGS. 4A-4C: GNAS signals through the CAMP-PKA axis. (FIG. 4A), KM12 GNAS^R201H and GNAS^352delG cells were treated with forskolin (0-250 μM) for 15 min. Following the treatment, cells were lysed, and cAMP levels were measured as described in the methods. (FIG. 4B), LS174T GNAS^R201H cells were treated with and without doxycycline, and cAMP levels measured after induction with forskolin (0-2.5 μM) for 15 min. (FIG. 4C), KM12 GNAS^R201H and GNAS^352delG organoids were grown in 3D-matrigel domes and treated with the PKA inhibitor H-89 (60 μM) for 10 days.
FIGS. 5A-5F: β-catenin is a downstream mediator of mutant GNAS signaling. (FIG. 5A), Top 10 hallmark genesets from the KM12 GNAS^KO-pool and LS174T GNAS overexpression datasets were selected and overlapping genesets were plotted. […] (FIG. 5D), Quantification of IHC tumors showing % of cells staining positive of β-catenin. (FIG. 5E), Quantification of the cytoplasmic and nuclear distribution of β-catenin based on IHC staining. […]
(§6) KM12 and LS174T cells were suspended with Matrigel (BD) at 100 cells/μL and plated as 5 μL droplets onto 96-well multi-well culture plates. […] The plates were placed in the cell imaging multi-mode plate reader Cytation™ 5 (Biotek, Winooski, VT) at 37° C. in an atmosphere supplemented with 5% CO2. […] The numbers and total area of organoids were calculated.

MEK regulated genes = assay: RNAseq analysis of post-treatment samples from trial NCT03108131 in appendiceal cancer; type: in vivo; conditions: cobimetinib with atezolizumab, three post-treatment samples
[5] = system: KM12 GNAS^352delG organoids; assay: 3D organoid growth, KM12 GNAS knockout (GNAS^352delG) organoids; type: cell-based, human; conditions: supplementation of organoid cultures with conditioned medium
Experimental: as §5
FIGS. 5A-5F: β-catenin is a downstream mediator of mutant GNAS signaling. (FIG. 5A), Top 10 hallmark genesets from the KM12 GNAS^KO-pool and LS174T GNAS overexpression datasets were selected and overlapping genesets were plotted. (FIG. 5B), Ratio of pT41/S45 phosphoβ-catenin/β-catenin based on the RPPA analysis results. (FIG. 5C), Immunohistochemistry (IHC) staining of β-catenin in LS174T dox (−) and dox (+) tissues from intraperitoneal mouse tumors. (FIG. 5D), Quantification of IHC tumors showing % of cells staining positive of β-catenin. (FIG. 5E), Quantification of the cytoplasmic and nuclear distribution of β-catenin based on IHC staining. (FIG. 5F), Effect of LF3 (β-catenin inhibitor) on the growth of KM12 (GNAS^R201H and GNAS^352delG) organoids. DMSO (0.2%) was used as control treatment and organoids were cultured for 10 days.
FIGS. 9A-9B: Wnt stimulation rescued growth of GNAS knockout organoids. (FIG. 9A), 3D growth of KM12 GNAS knockout organoids after supplementation with Wnt3a or R-spondin conditioned medium. (FIG. 9B), Quantification of growth by measuring total colony area (%).
as §6, with “plates. The plates were incubated at 37° C. for 15 min.” for “plates.”

LS174T GNAS^R201H cells = assay: cAMP levels, LS174T cells overexpressing GNAS^R201H; type: cell-based, human; conditions: forskolin 0-2.5 μM, 15 min; doxycycline induced
Experimental: as §5

CCC(CC)COC(=O)[C@H](C)NP(=O)(OC[C@H]1O[C@@H](n2cnc3c(=O)[nH]c(N)nc32)[C@@H]2O[C@@H]21)Oc1ccccc1 (stereo partly drawn) [GE3]
cAMP levels [1]: significantly reduced CAMP | dose by which growth was comparable to the level in the KO cells [2]: 0.01 mM | cell growth / viability ([2]; GE3, lower doses): dose-dependent fashion; also recorded: decreased viability | cell growth ([2]; GE3 at mM doses): significantly reduced growth | cell growth ([2]; GE3 by 1 mM): essentially no growth | IC50 ([2]; Homo sapiens, read-out: IC50 in viability assay): 105 µM | cell growth (GNAS KO SNU-175; GE3 at mM doses): significantly reduced growth | cell growth (GNAS KO SNU-175; GE3 by 1 mM): essentially no growth | potency relative to JVS-324 (cAMP) [3]: significantly more potent | dose by which cAMP level was comparable to the level in the KO cells ([3]; 20 hours): 0.01 mM | cAMP levels ([3]; lower doses (0-0.5 mM), 20 hours): dose-dependent fashion; also recorded: inhibits cAMP production | cAMP levels ([3]; mM doses (1-5 mM), 20 hours): significantly reduced CAMP; also recorded: inhibits cAMP production

O=S(=O)(NCCNC/C=C/c1ccc(Br)cc1)c1cccc2cnccc12 [Compound H-89]
reduced the growth of KM12 organoids [4]: 79%

O=C(c1ccc(F)c(F)c1Nc1ccc(I)cc1F)N1CC(O)([C@@H]2CCCCN2)C1 [cobimetinib]
expression of MEK regulated genes (MEK regulated genes): not down regulated

Wnt3a
rescue of organoid growth of GNAS-knockout cells [5]: rescued organoid growth | rescue of organoid growth of GNAS-knockout cells ([5]; listed as WNT3A): can be rescued | rescue of organoid growth of GNAS-knockout cells ([5]; listed as Wnt3A): rescue GNAS knockout

C=C[C@@]1(C)CC(=O)[C@]2(O)[C@@]3(C)[C@@H](O)CCC(C)(C)[C@@H]3[C@H](O)[C@H](OC(C)=O)[C@@]2(C)O1 [forskolin]
effect of forskolin on basal levels of cAMP (LS174T GNAS^R201H cells): no effect
